In brackets after ≈: the same amount, converted by molar mass.
Columns and labels:
[1] = tested on: Enterobacter aerogenes ATCC 15038; experiment: "In vitro" MIC, Enterobacter aerogenes; type: cell-based; conditions: Klebsiella aerogenes, ATCC15038; Enterobacter aerogenes ATCC 15038; dextrose agar, 37° C., 20 hours; read-out: "In vitro" MIC
Description: (§1) Antimicrobial pharmacological activity (G. L. Daquet and Y. A. Chabbect, Techniques en bacteriologie (Techniques in bacteriology), vol. 3, Flammarion Medecine-Sciences, Paris, 1972, and W. B. Hugo and A. D. Rusell, Pharmaceutical Microbiology, Blackwell Scientific Publications, London (1977).
Enterobacter aerogenes ATCC 15038
(§2) A streak culture of each of the microorganisms is formed in tubes of antibiotics agar no. 1 and incubated for 20 hours at 37° C. A culture loop is then taken and a culture is formed in a tryptone-soya broth and incubated for 20 hours at 37° C. The resulting culture is diluted to 1/4 with Ringer's physiological solution to give a standardized suspension of 10^5 ufc/ml for each organism.
(§3) Starting from a solution of 1000 μg/ml in 0.1N NaOH, each product is diluted successively in dextrose agar (melted beforehand and kept at 50° C.) to give the following concentrations: 64-32-16-8-4-2-1-0.5-0.25-0.125 μg of derivative/ml of medium.
(§4) After this, each concentration of each product is divided up into Petri dishes of 10 cm diameter at a rate of 10 ml of medium per dish and using as many dishes as there are microorganisms to be tested.
(§5) Once the medium has cooled, the dishes are treated with the inoculations at a rate of 0.4 ml of inoculation per dish. They are spread out with a Drigalski loop and the supernatant is collected. The inoculated dishes are incubated at 37° C. for 20 hours.

[2] = tested on: Serratia marcescens ATTC 13880; experiment: "In vitro" MIC, Serratia marcescens; type: cell-based; conditions: ATTC13880; Serratia marcescens ATTC 13880; dextrose agar, 37° C., 20 hours; read-out: "In vitro" MIC
Description: as §1
Serratia marcescens ATTC 13880
as §2, §3, §4, §5

[3] = tested on: Bacillus subtilis ATCC 6633; experiment: "In vitro" MIC, Bacillus subtilis; type: cell-based; conditions: ATCC6633; Bacillus subtilis ATCC 6633; dextrose agar, 37° C., 20 hours; read-out: "In vitro" MIC
Description: as §1
Bacillus subtilis ATCC 6633
as §2, §3, §4, §5

Proteus morganii CHSP-16 = experiment: "In vitro" MIC, Proteus morganii; type: cell-based; conditions: Morganella morganii, CHSP16; Proteus morganii CHSP-16; dextrose agar, 37° C., 20 hours; read-out: "In vitro" MIC
Description: as §1, §2, §3, §4, §5

[4] = tested on: Micrococcus flavus ATCC 10240; experiment: "In vitro" MIC, Micrococcus flavus; type: cell-based; conditions: ATCC10240; Micrococcus flavus ATCC 10240; dextrose agar, 37° C., 20 hours; read-out: "In vitro" MIC
Description: as §1
Micrococcus flavus ATTC 10240
as §2, §3, §4, §5

[5] = tested on: Klebsiella pneumoniae ATCC 10031; experiment: "In vitro" MIC, Klebsiella pneumoniae; type: cell-based; conditions: ATCC10031; Klebsiella pneumoniae ATCC 10031; dextrose agar, 37° C., 20 hours; read-out: "In vitro" MIC
Description: as §1
Klebsiella pneumoniae ATCC 10031
as §2, §3, §4, §5

[6] = tested on: Staphylococcus aureus ATCC 5488/23; experiment: "In vitro" MIC, Staphylococcus aureus ATCC 5488/23; type: cell-based; conditions: ATCC5488; Staphylococcus aureus ATCC 5488/23; dextrose agar, 37° C., 20 hours; read-out: "In vitro" MIC
Description: as §1
Staphylococcus aureus ATCC 5488/23
as §2, §3, §4, §5

[7] = tested on: Citrobacter freundii ATCC 11606; experiment: "In vitro" MIC, Citrobacter freundii; type: cell-based; conditions: ATCC11606; Citrobacter freundii ATCC 11606; dextrose agar, 37° C., 20 hours; read-out: "In vitro" MIC
Description: as §1
Citrobacter freundii ATCC 11606
as §2, §3, §4, §5

[8] = tested on: Salmonella typhimurium AMES 98; experiment: "In vitro" MIC, Salmonella typhimurium AMES 98; type: cell-based; conditions: Salmonella enterica; Salmonella typhimurium AMES 98; dextrose agar, 37° C., 20 hours; read-out: "In vitro" MIC
Description: as §1
Salmonella typhimurium AMES 98
as §2, §3, §4, §5

[9] = tested on: Proteus mirabilis ATCC 4675; experiment: "In vitro" MIC, Proteus mirabilis; type: cell-based; conditions: ATCC4675; Proteus mirabilis ATCC 4675; dextrose agar, 37° C., 20 hours; read-out: "In vitro" MIC
Description: as §1
Proteus mirabilis ATCC 4675
as §2, §3, §4, §5

[10] = tested on: Pseudomonas aeruginosa ADSA 47; experiment: "In vitro" MIC, Pseudomonas aeruginosa ADSA 47; type: cell-based; conditions: ADSA47; Pseudomonas aeruginosa ADSA 47; dextrose agar, 37° C., 20 hours; read-out: "In vitro" MIC
Description: as §1
Pseudomonas aeruginosa ADSA 47
as §2, §3, §4, §5

Shigella flexnerii = experiment: "In vitro" MIC, Shigella flexnerii; type: cell-based; conditions: 20 h, read-out: "In vitro" MIC
Description: as §1, §2, §3, §4, §5

Escherichia coli R-1513 = experiment: "In vitro" MIC, Escherichia coli R-1513; type: cell-based; conditions: R1513; Escherichia coli R-1513; dextrose agar, 37° C., 20 hours; read-out: "In vitro" MIC
Description: as §1, §2, §3, §4, §5

[11] = tested on: Escherichia coli ATCC 10536; experiment: "In vitro" MIC, Escherichia coli ATCC 10536; type: cell-based; conditions: ATCC10536; Escherichia coli ATCC 10536; dextrose agar, 37° C., 20 hours; read-out: "In vitro" MIC
Description: as §1
Escherichia coli ATCC 10536
as §2, §3, §4, §5

[12] = tested on: Enterobacter cloacae CHSP-20; experiment: "In vitro" MIC, Enterobacter cloacae; type: cell-based; conditions: CHSP20; Enterobacter cloacae CHSP-20; dextrose agar, 37° C., 20 hours; read-out: "In vitro" MIC
Description: as §1
Enterobacter cloacae CHSP-20
as §2, §3, §4, §5

[13] = tested on: Staphylococcus aureus ATCC 25178; experiment: "In vitro" MIC, Staphylococcus aureus ATCC 25178; type: cell-based; conditions: ATCC25178; Staphylococcus aureus ATCC 25178; dextrose agar, 37° C., 20 hours; read-out: "In vitro" MIC
Description: as §1
Staphylococcus aureus ATCC 25178
as §2, §3, §4, §5

[14] = tested on: Gram-negative microorganisms; experiment: "In vitro" antimicrobial activity compared with nalidixic acid, Gram-negative microorganisms; type: cell-based
Description: as §1, §2, §3, §4, §5

Acute toxicity to mice = conditions: mouse, in vivo, ip, suspension in 5% gum arabic, mortality over 7 days
Description: The experimental animals used to determine this toxicity were albino mice of the C.F.L.P. strain and of both sexes, weighing between 19 and 25 grams. After an 18-hour fasting period with water "ad libitum", the derivatives forming the subject of the present invention are administered intraperitoneally as a suspension in 5% gum arabic. The volume of suspension administered was 0.4 ml/20 grams (20 ml/kg) in all cases, the concentration of the suspension being changed according to the dose administered.
One hour after administration of the derivatives, the animals are given a standard Panlab rat-mouse food. The mortality was observed over a period of 7 days. Differences in mortality between the sexes were not observed with any of the products.

[15] = tested on: Salmonella typhimurium AMES 100; experiment: "In vitro" MIC, Salmonella typhimurium AMES 100; type: cell-based; conditions: Salmonella enterica; Salmonella typhimurium AMES 100; dextrose agar, 37° C., 20 hours; read-out: "In vitro" MIC
Description: as §1
Salmonella typhimurium AMES 100
as §2, §3, §4, §5

Sarcina lutea ATCC 9341 = experiment: "In vitro" MIC, Sarcina lutea; type: cell-based; conditions: Micrococcus luteus, ATCC9341; Sarcina lutea ATCC 9341; dextrose agar, 37° C., 20 hours; read-out: "In vitro" MIC
Description: as §1, §2, §3, §4, §5

[16] = tested on: Streptococcus faecalis ATCC 10541; experiment: "In vitro" MIC, Streptococcus faecalis; type: cell-based; conditions: Enterococcus faecalis, ATCC10541; Streptococcus faecalis ATCC 10541; dextrose agar, 37° C., 20 hours; read-out: "In vitro" MIC
Description: as §1
Streptococcus faecalis ATCC 10541
as §2, §3, §4, §5

[17] = tested on: Pseudomonas aeruginosa 25115; experiment: "In vitro" MIC, Pseudomonas aeruginosa 25115; type: cell-based; conditions: Pseudomonas aeruginosa 25115; dextrose agar, 37° C., 20 hours; read-out: "In vitro" MIC
Description: as §1
Pseudomonas aeruginosa 25115
as §2, §3, §4, §5

Gram-positive cocci = experiment: "In vitro" antimicrobial activity compared with nalidixic acid, Gram-positive cocci; type: cell-based
Description: as §1, §2, §3, §4, §5

all microorganisms = experiment: "In vitro" antimicrobial activity compared with nalidixic acid, all microorganisms; type: cell-based; conditions: against all microorganisms
Description: as §1, §2, §3, §4, §5

Compound | MIC [1] | MIC [2] | MIC [3] | MIC (Proteus morganii CHSP-16) | MIC [4] | MIC [5] | MIC [6] | MIC [7] | MIC [8] | MIC [9] | MIC [10] | MIC (Shigella flexnerii) | MIC (Escherichia coli R-1513) | MIC [11] | MIC [12] | MIC [13] | LD50 at 168 h (Acute toxicity to mice) | MIC [15] | MIC (Sarcina lutea ATCC 9341) | MIC [16] | also measured
O=C(O)c1cn(CC2CC2)c2cc(-n3cccc3)c(F)cc2c1=O [Example 4, 6-fluoro-7-(pyrrol-1-yl)-1-cyclopropylmethyl-4-oxo-1,4-dihydroquinoline-3-carboxylic acid] | 8 µg/mL (≈ 24.5 µM) | 4 µg/mL (≈ 12.3 µM) | 0.125 µg/mL (≈ 0.383 µM) | 8 µg/mL (≈ 24.5 µM) | 1 µg/mL (≈ 3.06 µM) | 1 µg/mL (≈ 3.06 µM) | 2 µg/mL (≈ 6.13 µM) | 16 µg/mL (≈ 49 µM) | 0.25 µg/mL (≈ 0.766 µM) | 32 µg/mL (≈ 98.1 µM) | ≥ 32 µg/mL | 4 µg/mL (≈ 12.3 µM) | 8 µg/mL (≈ 24.5 µM) | 0.25 µg/mL (≈ 0.766 µM) | 4 µg/mL (≈ 12.3 µM) | 1 µg/mL (≈ 3.06 µM) | > 1600 mg/kg | 2 µg/mL (≈ 6.13 µM) | 8 µg/mL (≈ 24.5 µM) | 16 µg/mL (≈ 49 µM) | activity compared with nalidixic acid [14]: activity of the same order as nalidixic acid; MIC [17]: ≥ 32 µg/mL; "in vitro" activity compared with nalidixic acid (Gram-positive cocci): greater activity towards Gram-positive cocci
O=C(O)c1cn(C2CC2)c2cc(-n3cccc3)c(F)cc2c1=O [Example 9, 6-fluoro-7-(pyrrol-1-yl)-1-cyclopropyl-1,4-dihydro-4-oxoquinoline-3-carboxylic acid] | 0.12 µg/mL (≈ 0.384 µM) | 0.5 µg/mL (≈ 1.6 µM) | 0.25 µg/mL (≈ 0.801 µM) | 0.5 µg/mL (≈ 1.6 µM) | 0.5 µg/mL (≈ 1.6 µM) | < 0.06 µg/mL | < 0.06 µg/mL | 0.25 µg/mL (≈ 0.801 µM) | 1 µg/mL (≈ 3.2 µM) | 0.5 µg/mL (≈ 1.6 µM) | 2 µg/mL (≈ 6.4 µM) | 0.2 µg/mL (≈ 0.64 µM) | 0.12 µg/mL (≈ 0.384 µM) | < 0.06 µg/mL | 0.12 µg/mL (≈ 0.384 µM) | < 0.06 µg/mL | > 1600 mg/kg | < 0.06 µg/mL | 0.5 µg/mL (≈ 1.6 µM) | 0.25 µg/mL (≈ 0.801 µM) | activity compared with nalidixic acid (all microorganisms): greater than the activity of nalidixic acid; MIC [17]: 1 µg/mL (≈ 3.2 µM)

Reference: patent US4727080A, “1-substituted derivatives of 6-fluoro-7-(pyrrol-1-yl)-1,4-dihydro-4-oxoquinoline-3-carboxylic acid, their preparation and their application as drugs” (Provesan S.A., priority 1984, dated 1988)
